The values below come from patent US20220226337A1 (Gilead Sciences, Inc., priority 2018, published 2022).

This assay has as its target T1, α4β7 integrin interaction with MadCAM-1 (RPMI8866 cells) (Homo sapiens, UniProt P13612+P26010).
T1 construct: α4β7 integrin expressing cells; endogenous in cells; host or cells: RPMI8866 cells
T1 sequence (P13612 34-1032): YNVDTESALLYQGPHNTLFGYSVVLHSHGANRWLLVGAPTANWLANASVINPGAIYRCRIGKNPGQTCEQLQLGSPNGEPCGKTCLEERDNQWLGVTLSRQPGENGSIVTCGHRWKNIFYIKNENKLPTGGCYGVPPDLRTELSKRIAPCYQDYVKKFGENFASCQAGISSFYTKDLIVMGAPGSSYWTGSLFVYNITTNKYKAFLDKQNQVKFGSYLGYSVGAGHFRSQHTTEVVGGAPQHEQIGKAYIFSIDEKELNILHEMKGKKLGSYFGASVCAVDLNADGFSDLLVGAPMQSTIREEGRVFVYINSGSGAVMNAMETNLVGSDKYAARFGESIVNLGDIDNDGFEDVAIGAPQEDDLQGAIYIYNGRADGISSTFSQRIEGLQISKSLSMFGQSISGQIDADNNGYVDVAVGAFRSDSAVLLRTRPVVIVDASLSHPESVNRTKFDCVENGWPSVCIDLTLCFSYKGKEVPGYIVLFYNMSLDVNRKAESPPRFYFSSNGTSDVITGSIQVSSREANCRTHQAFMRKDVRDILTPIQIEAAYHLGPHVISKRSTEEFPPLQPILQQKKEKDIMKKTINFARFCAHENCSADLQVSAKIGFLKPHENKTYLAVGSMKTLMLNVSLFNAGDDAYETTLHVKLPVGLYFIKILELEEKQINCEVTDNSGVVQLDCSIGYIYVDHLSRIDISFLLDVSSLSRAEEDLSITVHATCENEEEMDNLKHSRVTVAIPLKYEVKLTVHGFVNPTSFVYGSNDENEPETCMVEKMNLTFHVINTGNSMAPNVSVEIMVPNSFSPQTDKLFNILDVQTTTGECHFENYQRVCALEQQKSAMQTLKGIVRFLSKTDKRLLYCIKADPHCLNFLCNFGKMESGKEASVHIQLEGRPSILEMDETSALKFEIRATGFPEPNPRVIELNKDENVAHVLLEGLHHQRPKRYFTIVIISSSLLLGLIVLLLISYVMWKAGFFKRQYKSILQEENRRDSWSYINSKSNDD
T1 sequence (P26010 20-798): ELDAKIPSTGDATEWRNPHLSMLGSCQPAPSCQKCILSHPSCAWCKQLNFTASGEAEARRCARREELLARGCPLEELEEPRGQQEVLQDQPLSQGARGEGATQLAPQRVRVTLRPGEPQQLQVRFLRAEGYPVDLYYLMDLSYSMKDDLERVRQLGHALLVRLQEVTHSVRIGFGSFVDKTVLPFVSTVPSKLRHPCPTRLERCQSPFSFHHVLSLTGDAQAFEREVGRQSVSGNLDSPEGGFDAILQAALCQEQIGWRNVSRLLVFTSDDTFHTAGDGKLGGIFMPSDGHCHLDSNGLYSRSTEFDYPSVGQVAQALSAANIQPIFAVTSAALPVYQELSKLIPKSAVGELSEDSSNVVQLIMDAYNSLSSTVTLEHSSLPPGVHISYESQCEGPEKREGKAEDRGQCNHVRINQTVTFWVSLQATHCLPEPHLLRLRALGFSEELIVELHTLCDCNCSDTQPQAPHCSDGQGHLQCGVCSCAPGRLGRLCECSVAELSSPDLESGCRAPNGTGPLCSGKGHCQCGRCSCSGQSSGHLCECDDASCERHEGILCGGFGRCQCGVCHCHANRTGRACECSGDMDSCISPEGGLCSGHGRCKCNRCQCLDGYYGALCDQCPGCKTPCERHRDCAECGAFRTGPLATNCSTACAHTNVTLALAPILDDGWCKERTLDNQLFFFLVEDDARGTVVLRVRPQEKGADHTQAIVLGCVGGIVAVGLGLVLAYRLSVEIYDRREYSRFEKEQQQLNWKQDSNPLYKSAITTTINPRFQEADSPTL
In words: α4β7 Integrin Cell Capture Assay. To be noted: capture of α4β7 integrin expressing RPMI8866 cells on recombinant MadCAM-1 extracellular domain-coated plate; 0.5 mM MnCl2. The class given is cell-based. A digest of the protocol:
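RPMI8866 cells (0.5×10^6 cells/mL in DMEM + 0.5% FBS + 0.5 mM MnCl2) preincubated with compound 1 h at 37 °C, then allowed to adhere 30 min at 37 °C to plates coated with MAdCAM-1 extracellular domain (1.0 μg/mL). Bound cells fixed with 2% glutaraldehyde, Hoechst-stained, imaged and counted; EC50 from cell count versus concentration.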
On to `Cc1cc(N2CCOC[C@@H]2C(F)(F)F)cc(F)c1C(=O)N[C@@H](Cc1ccc(-c2c(C)nc(C)n(C)c2=O)c2c1COC2)C(=O)O` [Example 183], for which the EC50 stood at 0.106 nM.
`O=C(N[C@@H](Cc1ccc(-c2c(Cl)cc(F)cc2Cl)c2c1OCCN2)C(=O)O)c1c(F)cccc1F` [Example 51, (S)-3-(5-(2,6-dichloro-4-fluorophenyl)-3,4-dihydro-2H-benzo[b][1,4]oxazin-8-yl)-2-(2,6-difluorobenzamido)propanoic acid]: the EC50 was 34 nM.
For “(S)-2-(2,6-difluoro-4-(((R)-1,1,1-trifluorobutan-2-yl)amino)benzamido)-3-(7-(1,4-dimethyl-2-oxo-5-(trifluoromethyl)-1,2-dihydropyridin-3-yl)-1,3-dihydroisobenzofuran-4-yl)propanoic acid [Example 25]” the value was 2.85 nM.
For `O=C(N[C@@H](Cc1ccc(-c2c(Cl)cc(F)cc2Cl)c2c1COC2)C(=O)O)c1c(Cl)cccc1Cl` [Example 17, (S)-3-(7-(2,6-dichloro-4-fluorophenyl)-1,3-dihydroisobenzofuran-4-yl)-2-(2,6-dichlorobenzamido)propanoic acid] the value was 127 nM.
For `Cc1c(-c2ccc(C[C@H](NC(=O)c3c(Cl)cccc3Cl)C(=O)O)c3c2OCCC3)c(=O)n(C)c2ccccc12` (single isomer, unassigned) [Example 61] the value was 2.29 nM; for `Cc1nc(-c2ccc(C[C@H](NC(=O)c3c(F)cc(N4CCOC[C@@H]4C(F)(F)F)cc3Cl)C(=O)O)c3c2OCCC3)c(=O)n(C)c1C` [Example 150], 0.14 nM; for `Cn1nc(-c2ccc(C[C@H](NC(=O)c3c(Cl)cccc3Cl)C(=O)O)c3c2OCCC3)c2ccccc21` [Example 69, (S)-2-(2,6-dichlorobenzamido)-3-(8-(1-methyl-1H-indazol-3-yl)chroman-5-yl)propanoic acid], 158 nM.
Take `Cn1cc(-c2ccc(C[C@H](NC(=O)c3c(F)cc(N[C@H](c4ccccc4)C(F)(F)F)cc3F)C(=O)O)c3c2OCCC3)c(=O)n(C)c1=O` [Example 85, (S)-2-(2,6-difluoro-4-(((R)-2,2,2-trifluoro-1-phenylethyl)amino)benzamido)-3-(8-(1,3-dimethyl-2,4-dioxo-1,2,3,4-tetrahydropyrimidin-5-yl)chroman-5-yl) propanoic acid]: the EC50 worked out at 0.53 nM.
With `Cc1cc(C(F)(F)F)c(-c2ccc(C[C@H](NC(=O)c3c(F)cc(N4CCOC[C@@H]4C(F)(F)F)cc3F)C(=O)O)c3c2OCCC3)c(=O)n1C` (single isomer, unassigned) [Example 40], the EC50 amounted to 0.889 nM.
In the case of `Cc1nc(-c2ccc(C[C@H](NC(=O)c3c(F)cc(N4CC[C@@H]4C(F)(F)F)cc3F)C(=O)O)c3c2OCCC3)c(=O)n(C)c1C` [Example 131] it was 1.56 nM.
In the case of `O=C(N[C@@H](Cc1ccc(-c2c(Cl)cc(F)cc2Cl)c2c1OCCO2)C(=O)O)c1c(F)cccc1OC(F)F` [Example 6, (S)-3-(8-(2,6-dichloro-4-fluorophenyl)-2,3-dihydrobenzo[b][1,4]dioxin-5-yl)-2-(2-(difluoromethoxy)-6-fluorobenzamido)propanoic acid] it was 444 nM; in that of `C=C1COCCN(c2cc(F)c(C(=O)N[C@@H](Cc3ccc(-c4nc(C)c(C)n(C)c4=O)c4c3CCCO4)C(=O)O)c(F)c2)C1` [Example 158], 0.502 nM.
With `CCc1nc(-c2ccc(C[C@H](NC(=O)c3c(F)cc(N4CCOC[C@@H]4C(F)(F)F)cc3F)C(=O)O)c3c2OCCC3)c(=O)n(C)c1CC` [Example 164], the EC50 came out at 0.482 nM.
In the case of `Cc1cc(N2CCOC[C@@H]2C(F)(F)F)cc(F)c1C(=O)N[C@@H](Cc1ccc(-c2c(C)nc(C)n(C)c2=O)c2c1CCCO2)C(=O)O` (atropisomer, axis not shown) [Example 120] it was 0.089 nM; in that of `O=C(N[C@@H](Cc1ccc(-c2cccc3c2OCCC3)c2c1CCCO2)C(=O)O)c1c(Cl)cccc1Cl` [Example 67, (S)-3-([8,8′-bichroman]-5-yl)-2-(2,6-dichlorobenzamido)propanoic acid], 40.9 nM; in that of `Cc1cc(N2CCOC[C@@H]2C(F)(F)F)cc(F)c1C(=O)N[C@@H](Cc1ccc(-c2c(C(F)(F)F)cc(C)n(C)c2=O)c2c1COC2)C(=O)O` [Example 188], 0.227 nM.
As for `Cc1cc(N2CCCC[C@@H]2C(F)(F)F)cc(F)c1C(=O)N[C@@H](Cc1ccc(-c2nc(C)c(C)n(C)c2=O)c2c1CCCO2)C(=O)O` [Example 149], the EC50 is 0.715 nM.
In the case of `Cc1cc(N2CCOC[C@@H]2C(F)(F)F)cc(F)c1C(=O)N[C@@H](Cc1ccc(-c2c(C)nc(C)n(C)c2=O)c2c1CCCO2)C(=O)O` [Example 129] it was 0.189 nM.
Regarding `Cc1c(C(F)(F)F)cn(C)c(=O)c1-c1ccc(C[C@H](NC(=O)c2c(F)cc(N3CCOC[C@@H]3C(F)(F)F)cc2F)C(=O)O)c2c1COC2` [Example 29, (S)-2-(2,6-difluoro-4-((R)-3-(trifluoromethyl)morpholino)benzamido)-3-(7-(1,4-dimethyl-2-oxo-5-(trifluoromethyl)-1,2-dihydropyridin-3-yl)-1,3-dihydroisobenzofuran-4-yl)propanoic acid], the EC50 was found to be 0.817 nM.
For `CCOCc1cc(OC)c(-c2ccc(C[C@H](NC(=O)c3c(F)cccc3F)C(=O)O)c3c2CCCO3)c(OC)c1` [Example 99, (S)-2-(2,6-difluorobenzamido)-3-(5-(4-(ethoxymethyl)-2,6-dimethoxyphenyl)chroman-8-yl)propanoic acid] the value was 9.33 nM; for `Cn1cc(-c2ccc(C[C@H](NC(=O)c3c(F)cccc3F)C(=O)O)c3c2OCCC3)c(=O)n(C)c1=O` [Example 73, (S)-2-(2,6-difluorobenzamido)-3-(8-(1,3-dimethyl-2,4-dioxo-1,2,3,4-tetrahydropyrimidin-5-yl)chroman-5-yl)propanoic acid], 17.3 nM; for `Cc1nc(-c2ccc(C[C@H](NC(=O)c3c(F)cc(N4CCCC[C@@H]4C(F)(F)F)cc3F)C(=O)O)c3c2OCCC3)c(=O)n(C)c1C` [Example 156], 0.84 nM.
In the case of `CC[C@@H](Nc1cc(F)c(C(=O)N[C@@H](Cc2ccc(-c3c(OC)cc(C)n(C)c3=O)c3c2CCCO3)C(=O)O)c(F)c1)C(F)(F)F` [Example 47, (S)-2-(2,6-difluoro-4-(((R)-1,1,1-trifluorobutan-2-yl)amino)benzamido)-3-(8-(4-methoxy-1,6-dimethyl-2-oxo-1,2-dihydropyridin-3-yl)chroman-5-yl)propanoic acid] it was 0.58 nM.
For `O=C(N[C@@H](Cc1ccc(-c2c(Cl)cc(F)cc2Cl)c2c1OCCCO2)C(=O)O)c1c(F)cccc1F` [Example 96, (S)-3-(9-(2,6-dichloro-4-fluorophenyl)-3,4-dihydro-2H-benzo[b][1,4]dioxepin-6-yl)-2-(2,6-difluorobenzamido)propanoic acid] the value was 42.3 nM.
On to `Cc1cc(C(F)(F)F)c(-c2ccc(C[C@H](NC(=O)c3c(F)cc(N[C@H](C)C(F)(F)F)cc3F)C(=O)O)c3c2OCCC3)c(=O)n1C` (single isomer, unassigned) [Example 41], for which the EC50 came out at 0.594 nM.

For orientation: EC50 means the concentration at which the effect is half-maximal.
